Test results published in patent US20220220103A1, “CYCLIN-DEPENDENT KINASE INHIBITORS” (SPV THERAPEUTICS INC., priority 2018, published 2022).
Values joined by “and” are separate entries in the source; they are usually repeats but may differ in a detail not shown here. Equal values may be shown once. Read-outs that look alike come from different tables or passages of the source.

How the values were obtained:
[1] = biological target: CDK6-CYCLIND3 (Homo sapiens, UniProt Q00534); assay: Microfluidic LabChip inhibition assay, CDK6-CYCLIND3; type: biochemical; conditions: ATP 300 μM
CDK6-CYCLIND3, sequence (Q00534 whole entry): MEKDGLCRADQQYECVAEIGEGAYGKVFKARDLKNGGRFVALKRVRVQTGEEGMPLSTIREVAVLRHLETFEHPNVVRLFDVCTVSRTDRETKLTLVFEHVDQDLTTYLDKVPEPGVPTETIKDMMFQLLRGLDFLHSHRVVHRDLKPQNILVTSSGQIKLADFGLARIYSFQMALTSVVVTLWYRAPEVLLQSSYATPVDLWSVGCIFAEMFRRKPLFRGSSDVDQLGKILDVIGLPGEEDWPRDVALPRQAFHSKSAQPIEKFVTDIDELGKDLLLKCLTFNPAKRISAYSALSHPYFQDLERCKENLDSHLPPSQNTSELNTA
CDK6-CYCLIND3, sequence (P30281 whole entry partner): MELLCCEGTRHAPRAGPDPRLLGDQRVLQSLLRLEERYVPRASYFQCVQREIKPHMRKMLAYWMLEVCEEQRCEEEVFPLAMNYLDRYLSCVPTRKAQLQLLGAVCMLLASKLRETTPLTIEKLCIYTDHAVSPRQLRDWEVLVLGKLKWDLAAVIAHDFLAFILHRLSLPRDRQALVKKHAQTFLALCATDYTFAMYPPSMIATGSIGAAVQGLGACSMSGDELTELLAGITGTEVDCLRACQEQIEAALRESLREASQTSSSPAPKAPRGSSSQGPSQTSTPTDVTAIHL
Description: (§1) The reaction was terminated by the addition of EDTA. The plates were analyzed using a Caliper LabChip 3000.
(§2) Additional inhibition assays were performed as described above.

[2] = biological target: CDK4-CYCLIND1 (Homo sapiens, UniProt P11802); assay: Microfluidic LabChip inhibition assay, CDK4-CYCLIND1; type: biochemical; conditions: ATP 200 μM
CDK4-CYCLIND1, sequence (P11802 whole entry): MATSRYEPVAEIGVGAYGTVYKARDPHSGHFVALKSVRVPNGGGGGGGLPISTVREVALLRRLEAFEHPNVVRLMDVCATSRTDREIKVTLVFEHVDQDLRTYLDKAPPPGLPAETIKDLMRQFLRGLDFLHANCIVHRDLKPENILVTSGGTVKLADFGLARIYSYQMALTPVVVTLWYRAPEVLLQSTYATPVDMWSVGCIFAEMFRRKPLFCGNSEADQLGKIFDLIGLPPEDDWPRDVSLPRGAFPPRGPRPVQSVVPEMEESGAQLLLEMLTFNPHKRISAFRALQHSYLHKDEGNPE
CDK4-CYCLIND1, sequence (P24385 whole entry partner): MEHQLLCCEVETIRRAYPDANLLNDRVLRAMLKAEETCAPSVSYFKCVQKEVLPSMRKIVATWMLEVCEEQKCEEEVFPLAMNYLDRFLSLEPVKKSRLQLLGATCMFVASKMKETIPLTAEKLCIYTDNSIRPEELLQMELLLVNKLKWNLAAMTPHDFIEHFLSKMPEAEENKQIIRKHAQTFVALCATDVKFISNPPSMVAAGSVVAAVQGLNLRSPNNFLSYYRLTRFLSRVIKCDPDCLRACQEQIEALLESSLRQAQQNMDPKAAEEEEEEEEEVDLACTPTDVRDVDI
Description: as §1, §2

[3] = Table 2, 25° C., read-out: CDK6 IC50
[4] = Table 2, 25° C., read-out: CDK4 IC50
[5] = Table 3a, read-out: CDK6 CyclinD3 IC50
[6] = Table 3a, second values in parentheses on the line below, not explained, read-out: CDK4 CyclinD1 IC50
[7] = Table 3b, second values in parentheses on the line below, not explained, read-out: CDK4 CyclinD1 IC50

Row | IC50 [1, 3] [nM] | IC50 [2, 4] [nM] | IC50 [1, 5] [nM] | IC50 [2, 6] | IC50 [2, 7] | SMILES
1 | 41.5 | 31.1 |  |  |  | CN1CCN(c2ccc(Nc3ncc4cc(C#N)c(=O)n(C56CC(C5)C6)c4n3)cc2)CC1 [Compound B1, 8-(bicyclo[1.1.1]pentan-1-yl)-2-((4-(4-methylpiperazin-1-yl)phenyl)amino)-7-oxo-7,8-dihydropyrido[2,3-d]pyrimidine-6-carbonitrile]
2 | 37.2 | 33.8 |  |  |  | N#Cc1cc2cnc(Nc3ccc(C4=CCNCC4)cn3)nc2n(C2CCCC2)c1=O [Compound B9, 8-cyclopentyl-7-oxo-2-((1′,2′,3′,6′-tetrahydro-[3,4′-bipyridin]-6-yl)amino)-7,8-dihydropyrido[2,3-d]pyrimidine-6-carbonitrile]
3 | 30.8 | 11.3 |  |  |  | N#Cc1cc2cnc(Nc3ccc(N4CCC(N5CCOCC5)CC4)nc3)nc2n(C2CCCC2)c1=O [Compound B40, 8-cyclopentyl-2-((6-(4-morpholinopiperidin-1-yl)pyridin-3-yl)amino)-7-oxo-7,8-dihydropyrido[2,3-d]pyrimidine-6-carbonitrile]
4 | 27.9 | 9.27 |  |  |  | N#Cc1cc2cnc(Nc3ccc(N4CCC(N5CCOCC5)CC4)cn3)nc2n(C2CCCC2)c1=O [Compound B39, 8-cyclopentyl-2-((5-(4-morpholinopiperidin-1-yl)pyridin-2-yl)amino)-7-oxo-7,8-dihydropyrido[2,3-d]pyrimidine-6-carbonitrile]
5 |  |  | 2240 | 370 nM | 370 nM | CNC(=O)c1cc2cnc(Nc3ccc(N4CCN(C)CC4)nc3)nc2n(C2CCCC2)c1=O [Compound B145, 8-cyclopentyl-N-methyl-2-((6-(4-methylpiperazin-1-yl)pyridin-3-yl)amino)-7-oxo-7,8-dihydropyrido[2,3-d]pyrimidine-6-carboxamide]
6 | 61.9 | 39.3 |  |  |  | N#Cc1cc2cnc(Nc3ccc(OCCN4CCCCC4)cn3)nc2n(C2CCCC2)c1=O [Compound B12, 8-cyclopentyl-7-oxo-2-((5-(2-(piperidin-1-yl)ethoxy)pyridin-2-yl)amino)-7,8-dihydropyrido[2,3-d]pyrimidine-6-carbonitrile]
7 | 7.71 | 1.78 |  |  |  | CN1CCN(c2ccc(Nc3ncc4cc(C#N)c(=O)n(C5CCCC5)c4n3)cc2F)CC1 [Compound B17, 8-cyclopentyl-2-((3-fluoro-4-(4-methylpiperazin-1-yl)phenyl)amino)-7-oxo-7,8-dihydropyrido[2,3-d]pyrimidine-6-carbonitrile]
8 | 33.2 | 11.5 |  |  |  | CN1CCN(c2ccc(Nc3ncc4cc(C#N)c(=O)n(C5CCCC5)c4n3)cn2)CC1 [Compound B23, 8-cyclopentyl-2-((6-(4-methylpiperazin-1-yl)pyridin-3-yl)amino)-7-oxo-7,8-dihydropyrido[2,3-d]pyrimidine-6-carbonitrile]
9 | 22.3 | 3.84 |  |  |  | CN(C)[C@H]1CCN(C(=O)c2ccc(Nc3ncc4cc(C#N)c(=O)n(C5CCCC5)c4n3)cc2)C1 [Compound B35, (S)-8-cyclopentyl-2-((4-(3-(dimethylamino)pyrrolidine-1-carbonyl)phenyl)amino)-7-oxo-7,8-dihydropyrido[2,3-d]pyrimidine-6-carbonitrile]
10 | 133 | 37.6 |  |  |  | CN(C)CCOc1ccc(Nc2ncc3cc(C#N)c(=O)n(C4CCCC4)c3n2)cn1 [Compound B11, 8-cyclopentyl-2-((6-(2-(dimethylamino)ethoxy)pyridin-3-yl)amino)-7-oxo-7,8-dihydropyrido[2,3-d]pyrimidine-6-carbonitrile]
11 | ≥ 30000 | 15700 |  |  |  | N#Cc1cc2cnc(N3CCC(N4CCOCC4)CC3)nc2n(C2CCCC2)c1=O [Compound B20, 8-cyclopentyl-2-(4-morpholinopiperidin-1-yl)-7-oxo-7,8-dihydropyrido[2,3-d]pyrimidine-6-carbonitrile]
12 |  |  | 1990 | 715 nM | 715 nM | CN1CCN(c2ccc(Nc3ncc4cc(C(=O)N(C)C)c(=O)n(C5CCCC5)c4n3)nc2)CC1 [Compound B141, 8-cyclopentyl-N,N-dimethyl-2-((5-(4-methylpiperazin-1-yl)pyridin-2-yl)amino)-7-oxo-7,8-dihydropyrido[2,3-d]pyrimidine-6-carboxamide]
13 | 10.4 | 2.31 |  |  |  | CC(C)N1CCN(c2ccc(Nc3ncc4cc(C#N)c(=O)n(C5CCCC5)c4n3)cc2F)CC1 [Compound B18, 8-cyclopentyl-2-((3-fluoro-4-(4-isopropylpiperazin-1-yl)phenyl)amino)-7-oxo-7,8-dihydropyrido[2,3-d]pyrimidine-6-carbonitrile]
14 | 798 | 571 |  |  |  | N#Cc1cc2cnc(Nc3ccc(N4CCN5CCC4CC5)cn3)nc2n(C2CCCC2)c1=O [Compound B13, 2-((5-(1,4-diazabicyclo[3.2.2]nonan-4-yl)pyridin-2-yl)amino)-8-cyclopentyl-7-oxo-7,8-dihydropyrido[2,3-d]pyrimidine-6-carbonitrile]
15 | 432 | 504 |  |  |  | CN1CCN(c2ccc(Nc3ncc4cc(C#N)c(=O)n(C56CC(C5)C6)c4n3)nc2)CC1 [Compound B3, 8-(bicyclo[1.1.1]pentan-1-yl)-2-((5-(4-methylpiperazin-1-yl)pyridin-2-yl)amino)-7-oxo-7,8-dihydropyrido[2,3-d]pyrimidine-6-carbonitrile]
16 | 33.4 | 21.1 |  |  |  | N#Cc1cc2cnc(Nc3ccc(N4CC5(CNC5)C4)cn3)nc2n(C2CCCC2)c1=O [Compound B32, 2-((5-(2,6-diazaspiro[3.3]heptan-2-yl)pyridin-2-yl)amino)-8-cyclopentyl-7-oxo-7,8-dihydropyrido[2,3-d]pyrimidine-6-carbonitrile]
17 |  |  | 102 | 59.6 nM | 59.6 nM | CN1CCN(c2ccc(Nc3ncc4cc(C#N)c(=O)n(C56CC(C5)C6)c4n3)cc2F)CC1 [Compound B148, 8-(bicyclo[1.1.1]pentan-1-yl)-2-((3-fluoro-4-(4-methylpiperazin-1-yl)phenyl)amino)-7-oxo-7,8-dihydropyrido[2,3-d]pyrimidine-6-carbonitrile]
18 |  |  | 138 | 13.6 nM and 10 nM | 13.6 nM and 10 nM | CNC(=O)c1cc2cnc(Nc3ccc(N4CCN(C)CC4)c(F)c3)nc2n(C2CCCC2)c1=O [Compound B144, 8-cyclopentyl-2-((3-fluoro-4-(4-methylpiperazin-1-yl)phenyl)amino)-N-methyl-7-oxo-7,8-dihydropyrido[2,3-d]pyrimidine-6-carboxamide]
19 | 7.27 | 2.03 |  |  |  | N#Cc1cc2cnc(Nc3ccc(N4CCNCC4)c(F)c3)nc2n(C2CCCC2)c1=O [Compound B14, 8-cyclopentyl-2-((3-fluoro-4-(piperazin-1-yl)phenyl)amino)-7-oxo-7,8-dihydropyrido[2,3-d]pyrimidine-6-carbonitrile]
20 | 55.3 | 29.1 |  |  |  | N#Cc1cc2cnc(Nc3ccc(OCCN4CCCCC4)nc3)nc2n(C2CCCC2)c1=O [Compound B8, 8-cyclopentyl-7-oxo-2-((6-(2-(piperidin-1-yl)ethoxy)pyridin-3-yl)amino)-7,8-dihydropyrido[2,3-d]pyrimidine-6-carbonitrile]
21 | 120 | 97.8 |  |  |  | CN(C)CCOc1ccc(Nc2ncc3cc(C#N)c(=O)n(C4CCCC4)c3n2)nc1 [Compound B6, 8-cyclopentyl-2-((5-(2-(dimethylamino)ethoxy)pyridin-2-yl)amino)-7-oxo-7,8-dihydropyrido[2,3-d]pyrimidine-6-carbonitrile]
